In ChEMBL document CHEMBL1146112, “Fluorescent glycosidase inhibiting 1,5-dideoxy-1,5-iminoalditols” (Bioorg Med Chem Lett, 2006):

Tests used:
[1] = biological target: T1, Tissue alpha-L-fucosidase (Homo sapiens, UniProt P04066); assay: Inhibition of human liver alpha-L-fucosidase
T1 sequence (P04066 whole entry): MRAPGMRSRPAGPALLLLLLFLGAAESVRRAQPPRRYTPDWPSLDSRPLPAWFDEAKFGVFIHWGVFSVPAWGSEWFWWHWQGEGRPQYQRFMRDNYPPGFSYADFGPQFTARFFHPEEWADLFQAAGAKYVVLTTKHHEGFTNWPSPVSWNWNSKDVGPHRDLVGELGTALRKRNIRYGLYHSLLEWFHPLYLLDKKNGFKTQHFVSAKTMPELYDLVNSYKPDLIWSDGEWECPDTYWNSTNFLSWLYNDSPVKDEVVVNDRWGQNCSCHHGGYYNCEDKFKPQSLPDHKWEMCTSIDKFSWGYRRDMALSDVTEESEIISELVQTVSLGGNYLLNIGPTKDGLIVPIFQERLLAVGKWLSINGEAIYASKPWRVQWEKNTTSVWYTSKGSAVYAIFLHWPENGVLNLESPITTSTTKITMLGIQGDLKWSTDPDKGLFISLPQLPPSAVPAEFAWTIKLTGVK

[2] = biological target: T2, Beta-xylosidase (Thermoanaerobacterium saccharolyticum, UniProt P36906); assay: Inhibition of Thermoanaerobacterium saccharolyticum beta-xylosidase
T2 sequence (P36906 whole entry): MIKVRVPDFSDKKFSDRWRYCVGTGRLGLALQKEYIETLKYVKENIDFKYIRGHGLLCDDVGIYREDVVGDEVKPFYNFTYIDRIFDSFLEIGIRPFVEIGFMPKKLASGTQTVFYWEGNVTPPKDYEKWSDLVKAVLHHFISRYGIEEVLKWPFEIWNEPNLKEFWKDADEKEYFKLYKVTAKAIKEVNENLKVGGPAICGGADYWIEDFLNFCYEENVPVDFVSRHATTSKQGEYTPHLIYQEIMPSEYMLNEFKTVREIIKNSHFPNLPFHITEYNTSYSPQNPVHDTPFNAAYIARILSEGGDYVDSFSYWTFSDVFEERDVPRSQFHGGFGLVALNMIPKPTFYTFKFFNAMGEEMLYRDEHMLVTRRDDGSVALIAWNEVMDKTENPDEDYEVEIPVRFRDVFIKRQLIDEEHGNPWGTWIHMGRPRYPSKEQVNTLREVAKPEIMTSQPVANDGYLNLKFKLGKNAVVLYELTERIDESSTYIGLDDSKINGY

Ki [1] [µM] | Ki [2] [µM] | Compound
0.5 |  | C[C@H]1[C@@H](O)[C@@H](O)[C@H](O)CN1CCCCCCNS(=O)(=O)c1cccc2c(N(C)C)cccc12
 | 7.6 | CN(C)c1cccc2c(S(=O)(=O)NCCCCCCN3C[C@@H](O)[C@H](O)[C@@H](O)C3)cccc12
 | 206 | O[C@H]1[C@H](O)CNC[C@@H]1O [DIDEOXYIMINOXYLITOL]
